From US11999727B2 (Tango Therapeutics, Inc., priority 2020, dated 2024)
pIC50: −log10 of the molar value.

How the values were obtained:
[1] = test system: HAP1 MTAP-deleted cell line; test: SDMA in-cell western assay, HAP1 MTAP-deleted; format: cell-based; details: for pIC50: Homo sapiens, HAP1, SDMA in-cell western, HAP1 MTAP-deleted, read-out: HAP 1 MTAP deleted IC50; for MTAP intact/deleted ratio: IC50 ratio HAP1 MTAP-intact / HAP1 MTAP-deleted, SDMA in-cell western
Procedure, shortened: (§1)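 Readout: in-cell western detection of SDMA. Cells: HAP1 expressing endogenous MTAP and an MTAP-null HAP1 counterpart. Output: IC50.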

[2] = test system: HAP1 MTAP-intact cell line; test: SDMA in-cell western assay, HAP1 MTAP-intact; format: cell-based; details: Homo sapiens, HAP1, SDMA in-cell western, HAP1 MTAP-intact; read-out: MTAP HAP1 intact IC50
Procedure, shortened: as §1

PRMT5 [3] = target: T1, PRMT5 (Homo sapiens, UniProt O14744); test: PRMT5 biochemical IC50 assay with no cofactor; details: PRMT5, no cofactor; read-out: No Cofactor/rel IC50
T1 construct: purchased Viva (custom protein)
Description: Table 1 indicates IC50 values (μM) against PRMT5 for exemplary compounds in the presence of SAM as cofactor, with no cofactor, and with MTA as cofactor, respectively (columns 4-6). […] Ki values can be calculated from the IC50 values as described in the Examples section. As detailed in the Examples section, for the assay performed in the presence of SAM, IC50=Ki×1.5 (Ki=IC50/1.5).

PRMT5 [4] = target: T1, PRMT5; test: PRMT5 biochemical IC50 assay with MTA as cofactor; details: PRMT5, MTA as cofactor; read-out: MTA IC50
[5] = test system: HAP1 MTAP-deleted cell line; test: Viability assay, MTAP-deleted cell line; format: cell-based; details: Homo sapiens, HAP1, viability IC50, MTAP-deleted cell line; read-out: HAP1 MTAP deleted viability
Description: Table 1 additionally indicates IC50 values in a viability assay for the MTAP-deleted cell line (column 10), indicating the effect of treatment with compound on cell survival.

PRMT5 [6] = target: T1, PRMT5; test: PRMT5 biochemical IC50 assay with SAM as cofactor; details: PRMT5, SAM as cofactor; read-out: SAM IC50

T1 sequence (O14744 whole entry): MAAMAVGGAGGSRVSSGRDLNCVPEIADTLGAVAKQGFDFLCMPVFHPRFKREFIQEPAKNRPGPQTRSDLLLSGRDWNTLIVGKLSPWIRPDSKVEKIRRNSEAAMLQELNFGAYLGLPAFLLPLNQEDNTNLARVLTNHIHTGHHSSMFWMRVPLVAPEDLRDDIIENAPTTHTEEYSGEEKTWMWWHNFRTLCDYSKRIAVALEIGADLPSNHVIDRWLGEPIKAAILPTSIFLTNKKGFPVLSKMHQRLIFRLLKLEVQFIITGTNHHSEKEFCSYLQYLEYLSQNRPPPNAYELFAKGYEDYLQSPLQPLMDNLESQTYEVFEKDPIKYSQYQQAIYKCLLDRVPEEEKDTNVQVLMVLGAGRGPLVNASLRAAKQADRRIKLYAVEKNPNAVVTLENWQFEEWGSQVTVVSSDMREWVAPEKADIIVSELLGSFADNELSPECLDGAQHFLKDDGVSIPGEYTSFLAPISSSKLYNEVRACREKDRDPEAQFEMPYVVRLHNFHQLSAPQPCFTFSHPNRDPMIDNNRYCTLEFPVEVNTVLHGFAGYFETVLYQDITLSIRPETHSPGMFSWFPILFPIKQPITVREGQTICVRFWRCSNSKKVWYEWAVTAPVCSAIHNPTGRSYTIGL
T1 sequence (Q9BQA1 whole entry partner): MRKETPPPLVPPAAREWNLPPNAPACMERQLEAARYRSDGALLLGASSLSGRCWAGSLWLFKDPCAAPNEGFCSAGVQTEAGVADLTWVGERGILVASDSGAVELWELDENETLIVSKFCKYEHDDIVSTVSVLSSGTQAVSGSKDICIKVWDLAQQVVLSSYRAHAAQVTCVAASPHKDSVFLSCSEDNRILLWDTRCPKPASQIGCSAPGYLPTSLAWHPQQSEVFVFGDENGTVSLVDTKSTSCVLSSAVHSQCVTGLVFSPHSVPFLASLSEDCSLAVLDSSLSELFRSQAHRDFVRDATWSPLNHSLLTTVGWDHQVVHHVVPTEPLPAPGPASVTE

pIC50 [1]	pIC50 [2]	pIC50 (PRMT5 [3])	pIC50 (PRMT5 [4])	pIC50 (PRMT5 [6])	SMILES	MTAP intact/deleted ratio [1]	pIC50 [5]
6.00 to 7.00	< 6.00	6.30 to 7.30	6.30 to 7.30	6.30 to 7.30	CNc1ccc([C@@H]2CCC[C@H](C)N2C(=O)C(=O)Nc2cncc(C(N)=O)c2)cn1 (racemic) [Compound 561, 5-[[2-[(2S,6S)-2-methyl-6-[6-(methylamino)-3-pyridyl]-1-piperidyl]-2-oxo-acetyl]amino]pyridine-3-carboxamide]	A (an IC50 ratio greater than or equal to 10 fold)	< 5.00
> 7.00	6.00 to 7.00	6.30 to 7.30	6.30 to 7.30	6.30 to 7.30	Cc1ccc([C@@H]2CC[C@@H](C)CN2C(=O)C(=O)Nc2cnc(N)c(C)c2)cc1O (racemic) [Compound 580, N-(6-amino-5-methylpyridin-3-yl)-2-(2-(3-hydroxy-4-methylphenyl)-5-methylpiperidin-1-yl)-2-oxoacetamide]	A (an IC50 ratio greater than or equal to 10 fold)	> 6.00
> 7.00	6.00 to 7.00	6.30 to 7.30	6.30 to 7.30	6.30 to 7.30	Cc1cc(NC(=O)C(=O)N2C[C@H](C)CC[C@H]2c2ccc3c(c2)C(=O)NC3)cnc1N (racemic) [Compound 582, N-(6-amino-5-methyl-3-pyridyl)-2-[(2R,5S)-5-methyl-2-(3-oxoisoindolin-5-yl)-1-piperidyl]-2-oxo-acetamide]	A (an IC50 ratio greater than or equal to 10 fold)	5.00 to 6.00
6.00 to 7.00	< 6.00	< 6.30	6.30 to 7.30	< 6.30	C[C@@H]1CC[C@H](c2ccccn2)N(C(=O)C(=O)Nc2cncc(C(N)=O)c2)C1 (racemic) [Compound 584, 5-[[2-[(2R,5R)-5-methyl-2-(2-pyridyl)-1-piperidyl]-2-oxo-acetyl]amino]pyridine-3-carboxamide]	A (an IC50 ratio greater than or equal to 10 fold)	< 5.00
> 7.00	< 6.00	6.30 to 7.30	6.30 to 7.30	6.30 to 7.30	C[C@@H]1CC[C@@H](c2ccccc2F)N(C(=O)C(=O)Nc2cncc(C(N)=O)c2)C1 (racemic) [Compound 595, 5-[[2-[(2R,5S)-2-(2-Fluorophenyl)-5-methyl-1-piperidyl]-2-oxo-acetyl]amino]pyridine-3-carboxamide]	A (an IC50 ratio greater than or equal to 10 fold)	5.00 to 6.00
> 7.00	6.00 to 7.00	6.30 to 7.30	6.30 to 7.30	6.30 to 7.30	Cc1cc(NC(=O)C(=O)N2C[C@H](C)CC[C@H]2c2cccc(Br)c2)cnc1N (racemic) [Compound 600, N-(6-amino-5-methyl-3-pyridyl)-2-[(2S,5R)-2-(3-bromophenyl)-5-methyl-1-piperidyl]-2-oxo-acetamide]	A (an IC50 ratio greater than or equal to 10 fold)	> 6.00
> 7.00	< 6.00	6.30 to 7.30	6.30 to 7.30	6.30 to 7.30	C[C@@H]1CC[C@@H](c2cccc(Br)c2)N(C(=O)C(=O)Nc2cncc(C(N)=O)c2)C1 (racemic) [Compound 601, 5-(2-(2-(3-bromophenyl)-5-methylpiperidin-1-yl)-2-oxoacetamido)nicotinamide]	A (an IC50 ratio greater than or equal to 10 fold)	5.00 to 6.00
> 7.00	< 6.00	6.30 to 7.30	6.30 to 7.30	6.30 to 7.30	C[C@@H]1CC[C@@H](c2ccc(O)c(C(C)(C)C)c2)N(C(=O)C(=O)Nc2cncc(C(N)=O)c2)C1 (racemic) [Compound 610, 5-[[2-[(2R,5S)-2-(3-tert-Butyl-4-hydroxy-phenyl)-5-methyl-1-piperidyl]-2-oxo-acetyl]amino]pyridine-3-carboxamide]	A (an IC50 ratio greater than or equal to 10 fold)	5.00 to 6.00
< 6.00	< 6.00	< 6.30	< 6.30	< 6.30	Cc1cc(NC(=O)C(=O)N2C[C@H](C)CC[C@H]2C2CCN(C)CC2)cnc1N (racemic) [Compound 614, N-(6-amino-5-methyl-3-pyridyl)-2-[(2R,5S)-5-methyl-2-(1-methyl-4-piperidyl)-1-piperidyl]-2-oxo-acetamide]	C (an IC50 ratio of less than 3 fold)	< 5.00
< 6.00	< 6.00	6.30 to 7.30	6.30 to 7.30	6.30 to 7.30	Cc1ncc(NC(=O)C(=O)N2C[C@H](C)CC[C@H]2c2ccc(F)cc2)cc1Cl (racemic) [Compound 622, N-(5-chloro-6-methyl-3-pyridyl)-2-[(2S,5R)-2-(4-fluorophenyl)-5-methyl-1-piperidyl]-2-oxo-acetamide]	B (an IC50 ratio greater than or equal to 3 fold but lower than 10 fold)	< 5.00
6.00 to 7.00	< 6.00	6.30 to 7.30	6.30 to 7.30	6.30 to 7.30	C[C@@H]1CC[C@@H](c2ccc3[nH]c(=O)[nH]c3c2)N(C(=O)C(=O)Nc2cncc(C(N)=O)c2)C1 (racemic) [Compound 623, rac-5-[[2-[(2R,5S)-5-methyl-2-(2-oxo-1,3-dihydrobenzimidazol-5-yl)-1-piperidyl]-2-oxo-acetyl]amino]pyridine-3-carboxamide]	A (an IC50 ratio greater than or equal to 10 fold)	< 5.00
> 7.00	< 6.00	6.30 to 7.30	6.30 to 7.30	6.30 to 7.30	Cc1ncc(NC(=O)C(=O)N2C[C@H](C)CC[C@H]2c2ccc3c(c2)CCC(=O)N3)cc1Cl (racemic) [Compound 639, N-(5-Chloro-6-methyl-3-pyridyl)-2-[(2R,5S)-5-methyl-2-(2-oxo-3,4-dihydro-1H-quinolin-6-yl)-1-piperidyl]-2-oxo-acetamide]	A (an IC50 ratio greater than or equal to 10 fold)	5.00 to 6.00
6.00 to 7.00	< 6.00	6.30 to 7.30	6.30 to 7.30	6.30 to 7.30	Cc1cc(NC(=O)C(=O)N2CC[C@@H](C)C[C@H]2c2ccccc2)cnc1N (racemic) [Compound 640, N-(6-amino-5-methyl-3-pyridyl)-2-[(2R,4S)-4-methyl-2-phenyl-1-piperidyl]-2-oxo-acetamide]	A (an IC50 ratio greater than or equal to 10 fold)	5.00 to 6.00
6.00 to 7.00	< 6.00	6.30 to 7.30	6.30 to 7.30	6.30 to 7.30	Cc1cc(NC(=O)C(=O)N2C[C@H](C)CC[C@H]2c2ccc3c(c2)CCC(=O)N3)cnc1C(F)F (racemic) [Compound 641, N-[6-(Difluoromethyl)-5-methyl-3-pyridyl]-2-[(2S,5R)-5-methyl-2-(2-oxo-3,4-dihydro-1H-quinolin-6-yl)-1-piperidyl]-2-oxo-acetamide]		5.00 to 6.00
> 7.00	< 6.00	6.30 to 7.30	6.30 to 7.30	6.30 to 7.30	CCc1cc([C@@H]2CC[C@@H](C)CN2C(=O)C(=O)Nc2cncc(C(N)=O)c2)ccc1O (racemic) [Compound 642, 5-[[2-[(2R,5S)-2-(3-Ethyl-4-hydroxy-phenyl)-5-methyl-1-piperidyl]-2-oxo-acetyl]amino]pyridine-3-carboxamide]	A (an IC50 ratio greater than or equal to 10 fold)	> 6.00
6.00 to 7.00	< 6.00	6.30 to 7.30	6.30 to 7.30	6.30 to 7.30	Cc1cc(NC(=O)C(=O)N2C[C@H](C)CC[C@H]2c2ccc(S(C)(=O)=O)cc2)cnc1N (racemic) [Compound 643, N-(6-amino-5-methyl-3-pyridyl)-2-[(2R,5S)-5-methyl-2-(4-methylsulfonylphenyl)-1-piperidyl]-2-oxo-acetamide]	C (an IC50 ratio of less than 3 fold)	5.00 to 6.00
> 7.00	6.00 to 7.00	6.30 to 7.30	6.30 to 7.30	6.30 to 7.30	Cc1cc(NC(=O)C(=O)N2C[C@H](C)CC[C@H]2c2ccc(C(N)=O)s2)cnc1N (racemic) [Compound 644, 5-[(2S,5R)-1-[2-[(6-amino-5-methyl-3-pyridyl)amino]-2-oxo-acetyl]-5-methyl-2-piperidyl]thiophene-2-carboxamide]	A (an IC50 ratio greater than or equal to 10 fold)	> 6.00
